Our source for the MIC values is patent US9650395B2, “Antibacterial compounds and methods for use” (PTC Therapeutics, Inc., priority 2011, dated 2017).

Test [1] deals with Gram-positive Staphylococcus aureus (S. aureus) 29213. Description: Antibacterial activity, microbroth dilution MIC, S. aureus 29213. It is filed as cell-based. The following applies: Staphylococcus aureus; S. aureus 29213, microbroth dilution; read-out: MIC, 29213.
Test [2] has as its system super sensitive Gram-negative Escherichia coli (E. coli) BAS849. In words: Antibacterial activity, microbroth dilution MIC, E. coli BAS849. It is filed as cell-based. As to conditions: Escherichia coli, read-out: MIC, BAS849.
For test [3], the system named is control Gram-negative E. coli 25922 strain. Description: Antibacterial activity, microbroth dilution MIC, E. coli 25922. As to conditions: Escherichia coli; E. coli 25922, microbroth dilution; read-out: MIC, 25922. It is filed as cell-based, Escherichia coli.
Where [4] appears, read: E. coli BAS849, microbroth dilution.

Structures are written as SMILES. Values after ≈ are worked out from the molar mass of the structure shown. Counter-ions that a name gives are not always drawn. Like-named read-outs stand apart in the source and are kept apart here.

Regarding `CCc1cc(C(=O)O)c(=O)[nH]c1-c1ccc(N2CCC[C@@H](O)C2)cc1` [Cpd 122, 5-ethyl-6-{4-[(3R)-3-hydroxypiperidin-1-yl]phenyl}-2-oxo-1,2-dihydropyridine-3-carboxylic acid], the figures for the minimal inhibitory concentration (MIC) in test [1], in test [2] (setting [4]) and in test [3] were 12.5 to 150 µg/mL (≈ 36.5 to 438 µM), < 1 µg/mL and 3.5 to 12.5 µg/mL (≈ 10.2 to 36.5 µM), respectively.
Consider `CCc1c(-c2ccc(N3CCC[C@@H](O)C3)cc2)[nH]c(=O)c(C(=O)O)c1O` [Cpd 125, 5-ethyl-4-hydroxy-6-{4-[(3R)-3-hydroxypiperidin-1-yl]phenyl}-2-oxo-1,2-dihydropyridine-3-carboxylic acid], for which the MIC is 12.5 to 150 µg/mL (≈ 34.9 to 419 µM) in test [1], < 1 µg/mL in test [2] (setting [4]) and 3.5 to 12.5 µg/mL (≈ 9.77 to 34.9 µM) in test [3].
As for `CCc1cc(C(=O)OC)c(=O)[nH]c1-c1ccc(N2CCC(OCc3ccccc3)C2)cc1` (stereo not drawn) [Cpd 127, methyl 6-{4-[3-(benzyloxy)pyrrolidin-1-yl]phenyl}-5-ethyl-2-oxo-1,2-dihydropyridine-3-carboxylate], the MIC in test [1], in test [2] (setting [4]) and in test [3] was 12.5 to 150 µg/mL (≈ 28.9 to 347 µM) throughout.
`CCc1cc(C(=O)O)c(=O)[nH]c1-c1ccc(N2C[C@@H](N)[C@H](O)C2)cc1.Cl` [Cpd 133, 6-{4-[(3R,4R)-3-amino-4-hydroxypyrrolidin-1-yl]phenyl}-5-ethyl-2-oxo-1,2-dihydropyridine-3-carboxylic acid hydrochloride]: the minimal inhibitory concentration (MIC) in test [1] was in the range of 12.5 to 150 µg/mL; in test [2] (setting [4]), 1 to 3.5 µg/mL; in test [3], 12.5 to 150 µg/mL.
Regarding `CCc1cc(C(=O)O)c(=O)[nH]c1-c1ccc(N2CC3CC2CN3C(=O)OC(C)(C)C)cc1` (stereo not drawn) [Cpd 137, 6-{4-[5-(tert-butoxycarbonyl)-2,5-diazabicyclo[2.2.1]hept-2-yl]phenyl}-5-ethyl-2-oxo-1,2-dihydropyridine-3-carboxylic acid], the results for the MIC in test [1], in test [2] and in test [3] were 12.5 to 150 µg/mL (≈ 28.4 to 341 µM), < 1 µg/mL and 12.5 to 150 µg/mL (≈ 28.4 to 341 µM), respectively.
With `CCc1cc(C(=O)O)c(=O)[nH]c1-c1ccc(N2CCC[C@H]2CN2CCCC2)cc1.O=C(O)C(F)(F)F` [Cpd 143, 5-ethyl-2-oxo-6-{4-[(2S)-2-(pyrrolidin-1-ylmethyl)pyrrolidin-1-yl]phenyl}-1,2-dihydropyridine-3-carboxylic acid trifluoroacetate], the MIC in test [1] was in the range of 12.5 to 150 µg/mL; in test [2] it was 3.5 to 12.5 µg/mL; in test [3], 12.5 to 150 µg/mL.
Turning to `CCc1cc(C(=O)O)c(=O)[nH]c1-c1ccc(N2Cc3ccccc3C2)cc1` [Cpd 162, 6-[4-(1,3-dihydro-2H-isoindol-2-yl)phenyl]-5-ethyl-2-oxo-1,2-dihydropyridine-3-carboxylic acid], the MIC was in the range of 12.5 to 150 µg/mL (≈ 34.7 to 416 µM) in test [1], 3.5 to 12.5 µg/mL (≈ 9.71 to 34.7 µM) in test [2] (setting [4]) and 12.5 to 150 µg/mL (≈ 34.7 to 416 µM) in test [3].
`CCc1cc(C(=O)O)c(=O)[nH]c1-c1ccc(N2CC(N)C2)cc1` [Cpd 170, 6-[4-(3-aminoazetidin-1-yl)phenyl]-5-ethyl-2-oxo-1,2-dihydropyridine-3-carboxylic acid]: the minimum inhibitory concentration (MIC) in test [1], in test [2] (setting [4]) and in test [3] was 12.5 to 150 µg/mL (≈ 39.9 to 479 µM) in each case.
Take `CCc1cc(C(=O)O)c(=O)[nH]c1-c1ccc(N2CC(NC(=O)OCc3ccccc3)C2)cc1` [Cpd 171, 6-[4-(3-{[(benzyloxy)carbonyl]amino}azetidin-1-yl)phenyl]-5-ethyl-2-oxo-1,2-dihydropyridine-3-carboxylic acid]: the results for the MIC in test [1], in test [2] (setting [4]) and in test [3] were 12.5 to 150 µg/mL (≈ 27.9 to 335 µM), 3.5 to 12.5 µg/mL (≈ 7.82 to 27.9 µM) and 12.5 to 150 µg/mL (≈ 27.9 to 335 µM), respectively.
Regarding `CCc1cc(C(=O)O)c(=O)[nH]c1-c1ccc(N2CCC(N(CC)CC)C2)cc1.O=C(O)C(F)(F)F` (stereo not drawn) [Cpd 172, 6-{4-[3-(diethylamino)pyrrolidin-1-yl]phenyl}-5-ethyl-2-oxo-1,2-dihydropyridine-3-carboxylic acid trifluoroacetate], the minimal inhibitory concentration (MIC) was 12.5 to 150 µg/mL in test [1], < 1 µg/mL in test [2] and 3.5 to 12.5 µg/mL in test [3].
Take `CCc1cc(C(=O)O)c(=O)[nH]c1-c1ccc(N2C[C@@H]3[C@H](C2)[C@H]3N(Cc2ccccc2)Cc2ccccc2)cc1` [Cpd 176, 6-{4-[(1R,5S,6s)-6-(dibenzylamino)-3-azabicyclo[3.1.0]hex-3-yl]phenyl}-5-ethyl-2-oxo-1,2-dihydropyridine-3-carboxylic acid hydrochloride]: the minimum inhibitory concentration (MIC) in test [1], in test [2] (setting [4]) and in test [3] was 12.5 to 150 µg/mL each time.
`CCc1cc(C(=O)O)c(=O)[nH]c1-c1ccc(N2CC3OCCN(Cc4ccccc4)C3C2)cc1.O=C(O)C(F)(F)F` (stereo not drawn) [Cpd 180, 6-[4-(4-benzylhexahydropyrrolo[3,4-b][1,4]oxazin-6(2H)-yl)phenyl]-5-ethyl-2-oxo-1,2-dihydropyridine-3-carboxylic acid trifluoroacetate]: the MIC in test [1] lay within 12.5 to 150 µg/mL; in test [2], 1 to 3.5 µg/mL; in test [3] it was 12.5 to 150 µg/mL.
With `CCc1cc(C(=O)O)c(=O)[nH]c1-c1ccc(N2CCC(CN(Cc3ccccc3)Cc3ccccc3)C2)cc1.O=C(O)C(F)(F)F` (stereo not drawn) [Cpd 181, 6-(4-{3-[(dibenzylamino)methyl]pyrrolidin-1-yl}phenyl)-5-ethyl-2-oxo-1,2-dihydropyridine-3-carboxylic acid trifluoroacetate], the minimum inhibitory concentration (MIC) in test [1] lay in the range of 12.5 to 150 µg/mL; in test [2], 3.5 to 12.5 µg/mL; in test [3], 12.5 to 150 µg/mL.
On to `CCc1cc(C(=O)O)c(=O)[nH]c1-c1ccc(N2CCO[C@H]3CNC[C@H]32)cc1.O=C(O)C(F)(F)F` [Cpd 186, 5-ethyl-6-{4-[(4aR,7aS)-hexahydropyrrolo[3,4-b][1,4]oxazin-4(4aH)-yl]phenyl}-2-oxo-1,2-dihydropyridine-3-carboxylic acid trifluoroacetate], for which the minimal inhibitory concentration (MIC) in test [1], in test [2] and in test [3] was 12.5 to 150 µg/mL in each case.
On to `CCc1cc(C(=O)O)c(=O)[nH]c1-c1ccc(N2C[C@H]3CCN(Cc4ccccc4)[C@H]3C2)cc1.O=C(O)C(F)(F)F` [Cpd 189, 6-{4-[(3aR,6aR)-1-benzylhexahydropyrrolo[3,4-b]pyrrol-5(1H)-yl]phenyl}-5-ethyl-2-oxo-1,2-dihydropyridine-3-carboxylic acid trifluoroacetate], for which the figures for the MIC in test [1], in test [2] and in test [3] were 12.5 to 150 µg/mL, < 1 µg/mL and 3.5 to 12.5 µg/mL, respectively.
Turning to `C=CCN(CC=C)c1ccc(-c2[nH]c(=O)c(C(=O)O)cc2CC)cc1` [Cpd 299, 6-{4-[di(prop-2-en-1-yl)amino]phenyl}-5-ethyl-2-oxo-1,2-dihydropyridine-3-carboxylic acid], the MIC fell in the range of 12.5 to 150 µg/mL (≈ 36.9 to 443 µM) in test [1], 1 to 3.5 µg/mL (≈ 2.96 to 10.3 µM) in test [2] (setting [4]) and 12.5 to 150 µg/mL (≈ 36.9 to 443 µM) in test [3].
For the compound `CCc1cc(C(=O)O)c(=O)[nH]c1-c1ccc(N2C[C@@H](O)[C@@H](O)C2)cc1` [Cpd 303, 6-{4-[(3R,4S)-3,4-dihydroxypyrrolidin-1-yl]phenyl}-5-ethyl-2-oxo-1,2-dihydropyridine-3-carboxylic acid], the minimum inhibitory concentration (MIC) was 12.5 to 150 µg/mL (≈ 36.3 to 436 µM) in test [1], < 1 µg/mL in test [2] (setting [4]) and 12.5 to 150 µg/mL (≈ 36.3 to 436 µM) in test [3].
`CCc1cc(C(=O)O)c(=O)[nH]c1-c1ccc(N(C)C)s1` [Cpd 305, 6-[5-(dimethylamino)thiophen-2-yl]-5-ethyl-2-oxo-1,2-dihydropyridine-3-carboxylic acid]: the minimal inhibitory concentration (MIC) is 12.5 to 150 µg/mL (≈ 42.8 to 513 µM) in test [1], < 1 µg/mL in test [2] (setting [4]) and 12.5 to 150 µg/mL (≈ 42.8 to 513 µM) in test [3].
Take `CCc1c(-c2ccc(N3CCCC3)s2)[nH]c(=O)c(C(=O)O)c1O` [Cpd 307, 5-ethyl-4-hydroxy-2-oxo-6-[5-(pyrrolidin-1-yl)thiophen-2-yl]-1,2-dihydropyridine-3-carboxylic acid]: the minimal inhibitory concentration (MIC) in test [1] is 3.5 to 12.5 µg/mL (≈ 10.5 to 37.4 µM); in test [2] (setting [4]), < 1 µg/mL; in test [3] it was 12.5 to 150 µg/mL (≈ 37.4 to 449 µM).
The like results for `CCc1cc(C(=O)O)c(=O)[nH]c1-c1ccc(N2CCCCC2)s1` [Cpd 308, 5-ethyl-2-oxo-6-[5-(piperidin-1-yl)thiophen-2-yl]-1,2-dihydropyridine-3-carboxylic acid] were, in that order, 12.5 to 150 µg/mL (≈ 37.6 to 451 µM), 1 to 3.5 µg/mL (≈ 3.01 to 10.5 µM) and 12.5 to 150 µg/mL (≈ 37.6 to 451 µM).
The like results for `CCc1c(-c2ccc(N3CCCCC3)s2)[nH]c(=O)c(C(=O)O)c1O` [Cpd 309, 5-ethyl-4-hydroxy-2-oxo-6-[5-(piperidin-1-yl)thiophen-2-yl]-1,2-dihydropyridine-3-carboxylic acid] were, in that order, 3.5 to 12.5 µg/mL (≈ 10 to 35.9 µM), < 1 µg/mL and 12.5 to 150 µg/mL (≈ 35.9 to 431 µM).
In the same order, the values of `CCc1cc(C(=O)O)c(=O)[nH]c1-c1ccc(OC(C)(C)C)cc1` [Cpd 311, 6-(4-tert-butoxyphenyl)-5-ethyl-2-oxo-1,2-dihydropyridine-3-carboxylic acid] are 12.5 to 150 µg/mL (≈ 39.6 to 476 µM), 3.5 to 12.5 µg/mL (≈ 11.1 to 39.6 µM) and 12.5 to 150 µg/mL (≈ 39.6 to 476 µM).
With `CCc1cc(C(=O)O)c(=O)[nH]c1-c1ccnn1C` [Cpd 344, 5-ethyl-6-(1-methyl-1H-pyrazol-5-yl)-2-oxo-1,2-dihydropyridine-3-carboxylic acid], the minimal inhibitory concentration (MIC) in test [1], in test [2] (setting [4]) and in test [3] was 12.5 to 150 µg/mL (≈ 50.6 to 607 µM) in each case.
Regarding `CCc1c(-c2ccnn2C)[nH]c(=O)c(C(=O)O)c1O` [Cpd 345, 5-ethyl-4-hydroxy-6-(1-methyl-1H-pyrazol-5-yl)-2-oxo-1,2-dihydropyridine-3-carboxylic acid], the MIC in test [1], in test [2] (setting [4]) and in test [3] was 12.5 to 150 µg/mL (≈ 47.5 to 570 µM) throughout.
With `CCc1cc(C(=O)O)c(=O)[nH]c1-c1cnn(C)c1` [Cpd 346, 5-ethyl-6-(1-methyl-1H-pyrazol-4-yl)-2-oxo-1,2-dihydropyridine-3-carboxylic acid], the MIC in test [1], in test [2] (setting [4]) and in test [3] was 12.5 to 150 µg/mL (≈ 50.6 to 607 µM) each time.
For the compound `CCc1c(-c2cnn(C)c2)[nH]c(=O)c(C(=O)O)c1O` [Cpd 347, 5-ethyl-4-hydroxy-6-(1-methyl-1H-pyrazol-4-yl)-2-oxo-1,2-dihydropyridine-3-carboxylic acid], the minimal inhibitory concentration (MIC) fell in the range of 12.5 to 150 µg/mL (≈ 47.5 to 570 µM) in test [1], 1 to 3.5 µg/mL (≈ 3.8 to 13.3 µM) in test [2] (setting [4]) and 3.5 to 12.5 µg/mL (≈ 13.3 to 47.5 µM) in test [3].
